Results on 21 compounds are retold here after PubChem BioAssay AID278 (DTP/NCI, 2004).

Records with an inconclusive call do not appear.

This experiment deals with nude mice, A549 intrarenal xenograft, tumor weight change. The experiment is described as follows: NCI In Vivo Anticancer Drug Screen. Data for tumor model A549 Human Adenocarcinoma of Lung with characteristics of Type II Alveolar Epithelial cells (intrarenal inoculation) in NU/NU BALB/C (nude) mice. The note with it: endpoint: mean tumor weight change, schedule: Q04DX003 (ip), higher = larger tumour. The method, then:
The antitumor activity of compounds was measured in mice bearing transplantable tumors. Survival or tumor size were measured and the results are expressed as the measurement made in the treated group (T) divided by the measurement made in the vehicle treated control group (C). The tumor model used in this assay is A549 Human Adenocarcinoma of Lung with characteristics of Type II Alveolar Epithelial cells (intrarenal inoculation) in NU/NU BALB/C (nude) mice

The mark [1] stands for this setting: dose: 12.5 mg/kg/injection, vehicle: saline with Tween-80.
The mark [2] stands for this setting: dose: 25.0 mg/kg/injection, vehicle: saline with Tween-80.
Setting [3] is: dose: 50.0 mg/kg/injection, vehicle: saline with Tween-80.
Where [4] appears, read: dose: 150.0 mg/kg/injection, vehicle: Klucel (hydroxypropylcellulose) (HPC).
Setting [5] is: dose: 300.0 mg/kg/injection, vehicle: Klucel (hydroxypropylcellulose) (HPC).
The mark [6] stands for this setting: dose: 600.0 mg/kg/injection, vehicle: Klucel (hydroxypropylcellulose) (HPC).
The mark [7] stands for this setting: dose: 25.0 mg/kg/injection, vehicle: Klucel (hydroxypropylcellulose) (HPC).

For the compound `Cc1ccc(C(=O)NC2C(=O)NC(C(C)C)C(=O)N3CCCC3C(=O)N(C)CC(=O)N(C)C(C(C)C)C(=O)OC2C)c2c1Oc1c(c(C(=O)NC3C(=O)NC(C(C)C)C(=O)N4CCCC4C(=O)N(C)CC(=O)N(C)C(C(C)C)C(=O)OC3C)c3nc(-c4ccccc4)c(=O)oc3c1C)N2` (stereo unspecified), the T/C runs as follows: (dose: 0.36 mg/kg/injection, vehicle: water) 101 % of control; (dose: 0.5 mg/kg/injection, vehicle: water) 61 % of control; (dose: 0.6 mg/kg/injection, vehicle: water) 94 % of control; (dose: 1.67 mg/kg/injection, vehicle: water) 62 % of control.

For `Cc1ccc(/C=C/C(=O)/C=C/c2ccc(C)o2)o1`, the T/C is 123 % of control (dose: 100.0 mg/kg/injection, vehicle: DMSO); 73 % of control (dose: 200.0 mg/kg/injection, vehicle: DMSO); 78 % of control (dose: 400.0 mg/kg/injection, vehicle: DMSO); 68 % of control (dose: 800.0 mg/kg/injection, vehicle: DMSO).

`S=C(N/N=C1/CCCC/C1=N/NC(=S)N1CCOCC1)N1CCOCC1`: the T/C by setting is: (dose: 6.25 mg/kg/injection, vehicle: saline with Tween-80) 71 % of control; under setting [1], 27 % of control; under setting [2], 37 % of control; under setting [3], 82 % of control.

In the case of `COC1=C(OC)C(=O)C(N(C)C)=C(CO)C1=O`, the T/C was 123 % of control (dose: 50.0 mg/kg/injection, vehicle: saline) and 173 % of control (dose: 100.0 mg/kg/injection, vehicle: saline).

Regarding `O=C1CC2(C(=O)N1CN1CCOCC1)c1ccccc1-c1ccccc12`, the T/C runs as follows: under setting [4], 36 % of control; (dose: 216.0 mg/kg/injection, vehicle: Klucel (hydroxypropylcellulose) (HPC)) 21 % of control; under setting [5], 28 % of control; (dose: 360.0 mg/kg/injection, vehicle: Klucel (hydroxypropylcellulose) (HPC)) 23 % of control; under setting [6], 11 % of control.

Consider `CN(C)/N=N/c1nc[nH]c1C(N)=O`, for which the T/C is 11 % of control (dose: 75.0 mg/kg/injection, vehicle: suspension in saline); 48 % of control (dose: 150.0 mg/kg/injection, vehicle: suspension in saline); 8 % of control (dose: 225.0 mg/kg/injection, vehicle: suspension in saline).

As to `C/C(=N\NC(=S)N1CC2CCC(CC2)C1)c1nccs1`, the T/C under setting [1] is 62 % of control, the T/C under setting [2] was 47 % of control and the T/C under setting [3] was 32 % of control.

Turning to `COc1cc2c(c(OC)c1O)-c1ccc(OC)c(=O)cc1[C@@H](NC(=O)C(F)(F)F)CC2`, the T/C is 7 % of control (dose: 5.0 mg/kg/injection, vehicle: Klucel (hydroxypropylcellulose) (HPC)); 116 % of control (dose: 7.2 mg/kg/injection, vehicle: Klucel (hydroxypropylcellulose) (HPC)); 48 % of control (dose: 10.0 mg/kg/injection, vehicle: Klucel (hydroxypropylcellulose) (HPC)); 90 % of control (dose: 12.0 mg/kg/injection, vehicle: Klucel (hydroxypropylcellulose) (HPC)).

For the compound `O=C(O)c1cc(C(=O)O)c(C(=O)O)cc1C(=O)O.[NH2-].[NH2-].[NH2-].[NH2-].[Pt+2].[Pt+2]`, the T/C (dose: 12.5 mg/kg/injection, vehicle: water) is 102 % of control.

Regarding `O=C([O][Bi]([c]1ccccc1)[c]1ccccc1)c1ccccc1`, the T/C under setting [7] is 83 % of control; the T/C (dose: 50.0 mg/kg/injection, vehicle: Klucel (hydroxypropylcellulose) (HPC)) is 76 % of control; the T/C (dose: 200.0 mg/kg/injection, vehicle: Klucel (hydroxypropylcellulose) (HPC)) was 73 % of control.

`Cn1c2ccccc2c2ccc3c(c21)C(=O)C=CC3=O`: the T/C by setting is: under setting [2], 61 % of control; under setting [3], 26 % of control; (dose: 100.0 mg/kg/injection, vehicle: saline with Tween-80) 38 % of control; (dose: 200.0 mg/kg/injection, vehicle: saline with Tween-80) 35 % of control.

As for `CCC1(O)C(=O)OCc2c1cc1n(c2=O)Cc2cc3cc4c(cc3nc2-1)OCO4` (stereo unspecified), the T/C (dose: 4.0 mg/kg/injection, vehicle: saline with Tween-80) was 6 % of control.

Consider `CO[C@@H]1C2=CC=CC=C[C@H]2n2c(=O)n(C)c(=O)n21`, for which the T/C by setting is: (dose: 37.5 mg/kg/injection, vehicle: water) 223 % of control; (dose: 75.0 mg/kg/injection, vehicle: other) 32 % of control; (dose: 75.0 mg/kg/injection, vehicle: water) 195 % of control; (dose: 150.0 mg/kg/injection, vehicle: other) 74 % of control; (dose: 150.0 mg/kg/injection, vehicle: water) 158 % of control.

Consider `CCCCN1C(=O)N(c2ccc(OCC)cc2)C2N(CCCC)C1C(C)(C)C2(C)C` (stereo unspecified), for which the T/C reads like this: (dose: 15.0 mg/kg/injection, vehicle: saline with Tween-80) 60 % of control; (dose: 30.0 mg/kg/injection, vehicle: saline with Tween-80) 51 % of control; (dose: 60.0 mg/kg/injection, vehicle: saline with Tween-80) 88 % of control; (dose: 120.0 mg/kg/injection, vehicle: saline with Tween-80) 94 % of control.

On to `O=C1c2cccc(NCCCNCCO)c2C(=O)c2cccc(NCCCNCCO)c21`, for which the T/C (dose: 12.5 mg/kg/injection, vehicle: acid diluted with saline) was 108 % of control and the T/C (dose: 25.0 mg/kg/injection, vehicle: acid diluted with saline) is 70 % of control.

`CCCCNP1(NCCCC)=NP(NCCCC)(NCCCC)=NP(NCCCC)(NCCCC)=NP(NCCCC)(NCCCC)=N1`: the T/C (dose: 150.0 mg/kg/injection, vehicle: saline with Tween-80) was 111 % of control and the T/C (dose: 300.0 mg/kg/injection, vehicle: saline with Tween-80) was 44 % of control.

In the case of `CC1=CCCC2C1(C)CCC(C)C2(C)Cc1cc(O)ccc1O` (stereo unspecified), the T/C (dose: 100.0 mg/kg/injection, vehicle: Klucel (hydroxypropylcellulose) (HPC)) is 16 % of control.

Take `CCC(=O)[O][Bi]([c]1ccccc1)[c]1ccccc1`: the T/C by setting is: (dose: 6.25 mg/kg/injection, vehicle: Klucel (hydroxypropylcellulose) (HPC)) 79 % of control; (dose: 12.5 mg/kg/injection, vehicle: Klucel (hydroxypropylcellulose) (HPC)) 49 % of control; under setting [7], 43 % of control.

As for `CNC(=O)/C=C/C1=CN2C(=O)c3ccc(C)c(O)c3NC(OC)C2C1` (stereo unspecified), the T/C by setting is: (dose: 100.0 micrograms/kg/injection, vehicle: saline) 1 % of control; (dose: 200.0 micrograms/kg/injection, vehicle: saline) 20 % of control; (dose: 400.0 micrograms/kg/injection, vehicle: saline) 29 % of control; (dose: 800.0 micrograms/kg/injection, vehicle: saline) -17 % of control.

On to `NC(N)=NS(=O)(=O)c1ccc(NCc2c3ccccc3nc3ccccc23)cc1`, for which the T/C under setting [4] was 4 % of control; the T/C under setting [5] is 10 % of control; the T/C under setting [6] was -10 % of control; the T/C (dose: 1200.0 mg/kg/injection, vehicle: Klucel (hydroxypropylcellulose) (HPC)) is -7 % of control.

Turning to `O=C(O)[C@H](Cc1ccccc1)N1C(=O)c2ccccc2C1=O`, the T/C is 94 % of control (dose: 150.0 mg/kg/injection, vehicle: DMSO); 77 % of control (dose: 300.0 mg/kg/injection, vehicle: DMSO); 47 % of control (dose: 600.0 mg/kg/injection, vehicle: DMSO).
